Values quoted from earlier work in article PMC12440824, “Chimeric deubiquitinase engineering reveals structural basis for specific inhibition of the mitophagy regulator USP30” (Nature Structural & Molecular Biology, 2025).
Where two headings read alike, the source gives them in different places.

Legend:
recombinant USP30 = conditions: literature values in Extended Data Fig. 1; ref Extended Data Fig. 1; read-out: Ub-Rho IC50; cited from earlier work
USP30 [1] = conditions: literature values in Fig. 1b / Extended Data Fig. 1; ref Extended Data Fig. 1; read-out: Cellular ABPP IC50; cited from earlier work
USP30 [2] = test system: USP30; design: method as in Extended Data Fig. 1; conditions: ref Extended Data Fig. 1; read-out: Tetra-Ub cleavage IC50; cited from earlier work

Row | Compound | IC50 (recombinant USP30) [nM] | IC50 (USP30 [1]) [nM] | IC50 (USP30 [2]) [nM]
1 | N#Cc1cccc(-c2nnc(C(=O)NC3CC(CF)N(C#N)C3)o2)c1 (stereo not shown) [Example 3] | 13 |  | 
2 | N#CN1CC[C@@H](NC(=O)c2cc(-c3ccccc3Oc3ccccc3)n[nH]2)C1 [FT385] | 2 | ~60 | 
3 | COc1cc(NC(=O)[C@H](Cc2ccccc2)NC(=O)c2ccc(F)cc2)ccc1S(=O)(=O)NC1CCOCC1 [I-150] | < 50 |  | 
4 | CC(C)(C)NS(=O)(=O)c1cccc2c(NC(=O)[C@H](Cc3ccccc3)NC(=O)C3CCCCC3)cccc12 [MF-094] | 120 | < 200 | 
5 | C=C1C(=O)C23CCC1CC2C12CCCC(C)(COC1=O)C2CC3O (stereo not shown) [S3] |  |  | 10000 to 50000
